Reference: PubChem BioAssay (NCI)
Values joined by “and” are separate entries in the source; they are usually repeats but may differ in a detail not shown here. Equal values may be shown once.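 1) Cells in 96-well plates. 2) Compound, 48 h, 5 concentrations. 3) Linear interpolation between surrounding doses. 4) Unreached endpoint = highest concentration. GI50 is the concentration that inhibits growth by half. TGI: concentration producing complete growth inhibition.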

Columns and labels:
Assay in all cases: NCI anticancer screen, dose series, 48 h
T-47D breast = tested on: T-47D breast
M14 melanoma = tested on: M14 melanoma
CAKI-1 renal = tested on: CAKI-1 renal
OVCAR-8 ovarian = tested on: OVCAR-8 ovarian
MDA-MB-435 = tested on: MDA-MB-435
TK-10 renal = tested on: TK-10 renal
RPMI-8226 leukemia = tested on: RPMI-8226 leukemia
SF-539 CNS = tested on: SF-539 CNS
MDA-MB-231 breast = tested on: MDA-MB-231 breast
HS 578T breast = tested on: HS 578T breast
RXF 393 renal = tested on: RXF 393 renal
CCRF-CEM leukemia = tested on: CCRF-CEM leukemia
NCI-H460 lung = tested on: NCI-H460 lung

COC(=O)C1(C)CCCC2(C)C3CCC4CC3(C=C4CO)CCC12 (stereo not given)
TGI (T-47D breast): > 100 µM | TGI (M14 melanoma): > 100 µM | TGI (CAKI-1 renal): > 100 µM | TGI (OVCAR-8 ovarian): > 100 µM | TGI (MDA-MB-435): > 100 µM | TGI (TK-10 renal): > 100 µM | TGI (RPMI-8226 leukemia): 48.6 µM | TGI (SF-539 CNS): > 100 µM | TGI (MDA-MB-231 breast): > 100 µM | TGI (HS 578T breast): > 100 µM | TGI (RXF 393 renal): > 100 µM | TGI (CCRF-CEM leukemia): > 100 µM

CCOC(=O)C(=CNC(=S)Nc1c(CC)cccc1CC)C(=O)OCC
TGI (T-47D breast): > 100 µM | TGI (M14 melanoma): > 100 µM | TGI (CAKI-1 renal): > 100 µM | TGI (OVCAR-8 ovarian): > 100 µM | TGI (MDA-MB-435): > 100 µM | TGI (TK-10 renal): > 100 µM | TGI (NCI-H460 lung): > 100 µM | TGI (RPMI-8226 leukemia): > 100 µM | TGI (SF-539 CNS): > 100 µM | TGI (MDA-MB-231 breast): > 100 µM | TGI (HS 578T breast): > 100 µM | TGI (RXF 393 renal): > 100 µM | TGI (CCRF-CEM leukemia): > 100 µM

Cc1c(F)c(N)c2c(=O)cc(-c3ccc(NC(=O)[C@@H](N)CCCCN)c(F)c3)oc2c1F
TGI (T-47D breast): 28.7 µM and > 57.3 µM | TGI (M14 melanoma): 46 µM and 39.4 µM | TGI (CAKI-1 renal): 9.01 µM and 29.7 µM | TGI (OVCAR-8 ovarian): 33 µM and 24.6 µM | TGI (MDA-MB-435): 26.6 µM and 20.5 µM | TGI (TK-10 renal): 21.4 µM and 26.4 µM | TGI (NCI-H460 lung): 16.2 µM and 16.6 µM | GI50 (RPMI-8226 leukemia): 3480 nM and 936 nM | TGI (RPMI-8226 leukemia): 32.6 µM and 22.3 µM | GI50 (SF-539 CNS): 17.1 µM and 5.78 µM | TGI (SF-539 CNS): 33.3 µM and 13.6 µM | TGI (MDA-MB-231 breast): 33.1 µM and 30.8 µM | GI50 (HS 578T breast): 23.5 µM and 11.5 µM | TGI (HS 578T breast): 53.4 µM and 45.8 µM | TGI (RXF 393 renal): 36.1 µM and 53.3 µM | TGI (CCRF-CEM leukemia): 22.9 µM

OC(C/C(=N\N=C(/CC(O)(C(F)(F)F)C(F)(F)F)c1ccccc1)c1ccccc1)(C(F)(F)F)C(F)(F)F
TGI (T-47D breast): > 10 µM | TGI (M14 melanoma): > 10 µM | TGI (CAKI-1 renal): > 10 µM | TGI (OVCAR-8 ovarian): > 10 µM | TGI (MDA-MB-435): > 10 µM | TGI (TK-10 renal): > 10 µM | TGI (NCI-H460 lung): > 10 µM | TGI (RPMI-8226 leukemia): > 10 µM | TGI (SF-539 CNS): > 10 µM | TGI (MDA-MB-231 breast): > 10 µM | TGI (HS 578T breast): > 10 µM | TGI (RXF 393 renal): > 10 µM | TGI (CCRF-CEM leukemia): > 10 µM

O=C1C(=C(C(=O)c2ccccc2)C(=O)c2ccccc2)OC(c2ccccc2)=C1C(=O)c1ccccc1
TGI (T-47D breast): 53.6 µM | TGI (M14 melanoma): 31 µM | TGI (CAKI-1 renal): 11.2 µM | TGI (OVCAR-8 ovarian): 15.7 µM | TGI (MDA-MB-435): 35.4 µM | TGI (TK-10 renal): 61.4 µM | TGI (NCI-H460 lung): 19.2 µM | TGI (RPMI-8226 leukemia): 24.9 µM | TGI (SF-539 CNS): 22.3 µM | TGI (MDA-MB-231 breast): 32.2 µM | TGI (HS 578T breast): 54.3 µM | TGI (RXF 393 renal): 8.13 µM | TGI (CCRF-CEM leukemia): 10.9 µM

CC(C)(C)c1cc(C(=O)/C=C/c2ccc3c(c2)CCO3)cc(C(C)(C)C)c1O
TGI (T-47D breast): > 100 µM | TGI (M14 melanoma): 5.25 µM | TGI (CAKI-1 renal): 22.1 µM | TGI (OVCAR-8 ovarian): > 100 µM | TGI (MDA-MB-435): 0.91 µM | TGI (TK-10 renal): > 25.9 µM | TGI (NCI-H460 lung): 1.92 µM | TGI (RPMI-8226 leukemia): 4.45 µM | TGI (SF-539 CNS): 1.46 µM | TGI (MDA-MB-231 breast): 6.54 µM | TGI (HS 578T breast): > 29.5 µM | TGI (RXF 393 renal): 0.579 µM | TGI (CCRF-CEM leukemia): > 31.5 µM

CC(=O)OC[C@@H](OC(C)=O)[C@@H](OC(C)=O)[C@H]1OC[C@@H]2C[C@H]([C@H]1OC(C)=O)N(Cc1ccccc1)O2
TGI (T-47D breast): > 100 µM | TGI (M14 melanoma): > 100 µM | TGI (CAKI-1 renal): > 100 µM | TGI (MDA-MB-435): > 100 µM | TGI (TK-10 renal): > 100 µM | TGI (NCI-H460 lung): > 100 µM | TGI (RPMI-8226 leukemia): > 100 µM | TGI (SF-539 CNS): > 100 µM | TGI (MDA-MB-231 breast): > 100 µM | TGI (HS 578T breast): > 100 µM | TGI (RXF 393 renal): > 100 µM | TGI (CCRF-CEM leukemia): > 100 µM

CC(=O)N1C2=CCCC2(C)c2ccccc21 (stereo not given)
TGI (T-47D breast): > 100 µM | TGI (M14 melanoma): > 100 µM | TGI (CAKI-1 renal): > 100 µM | TGI (OVCAR-8 ovarian): > 100 µM | TGI (MDA-MB-435): > 100 µM | TGI (TK-10 renal): > 100 µM | TGI (NCI-H460 lung): > 100 µM | TGI (RPMI-8226 leukemia): 45.6 µM | TGI (SF-539 CNS): > 100 µM | TGI (MDA-MB-231 breast): > 100 µM | TGI (HS 578T breast): > 100 µM | TGI (RXF 393 renal): > 100 µM | TGI (CCRF-CEM leukemia): > 100 µM
